Tests used:
LasR = LasR assay (unstable gfp fused to the elastase promoter); format: cell-based; conditions: Pseudomonas aeruginosa, read-out: LasR (conc)
Protocol: Compounds of the present invention were also assayed using a LasR assay. The LasR assay provides a measurement of quorum sensing inhibition activity. The higher the percentage inhibition. […] In the LasR assay, an unstable gfp has been fused to the elastase promoter, so that the amount of Gfp is regulated by the QS system. The plasmid is put into Pseudomonas aeruginosa which makes its own AHL signals. The assay is performed by adding the compounds to be tested to the system at the beginning of the experiment, at different concentrations. Gfp expression is measured at different times during growth, ending at the 24 h time point. The percentage fluorescence was determined at the time point when the fluorescence reached its maximum in the control, usually around 11-12 h after inoculation.

V. fischeri luxRI system = test: N-acylated homoserine lactone (AHL) quorum sensing assay, GFP reporter strain; format: cell-based, E. coli; conditions: for ID40 at 3 nM OHHL: Table 4, number in parentheses, unit not given, amount of compound lowering relative activity to 40%
Protocol: Compounds of the present invention were compared to compounds of the prior art in order using an AHL-quorum sensing assay which utilises a reporter strain that expresses Green Fluorescent Protein (GFP) in the presence of AHL signals. The assay is performed by measuring GFP output in the presence of the compound to be measured and comparing the output to a control. By using multiple samples at varying concentrations of compound and AHL, an inhibition index of compound activity can be generated. The inhibition index used in the present example is the relative amount of compound required to reduce GFP expression to 40% of the control. The inhibition index is termed AIC40. Lower values of AIC40 represent better inhibitors of the AHL quorum sensing system.
The reporter strain of bacterium used in this assay is E. coli into which the V. fischeri luxRI system has been engineered. A gfp gene is fused to the QS controlled luxI promoter as is described in (Andersen et al., 2001, and Andersen et al, 1998).
Measurement of AIC40 (ID40 at 3 nM OHHL)
Determination of the activity of compounds using the E. coli based luxRI construct was performed as follows.
In a 15 mL plastic tube, mix 3 mL of o.n. culture of the lux reporter strain with 12 mL fresh medium, incubate at 37° C. Label six tubes, 10, 20, two 50 and two 100. To each of the tubes, add OHHL (3-oxohexanoyl homoserine lactone) to a final concentration of 10, 20, 50, or 100 nM respectively in the AB medium (add enough medium to distribute across the appropriate number of wells). To the first row of the microplate (row A), add 200 ul of the OHHL/AB mixture. To the remaining rows (B-H) add 100 ul of the OHHL/AB mixture. To the first row (A) add compounds to be tested to the 200 ul mixture of OHHL/AB. Make a dilution series in the first 7 rows by transferring 100 μL from wells in row 1 to wells in row 2 and so on. Discard the remaining 100 μL from row 7. Add 100 μL diluted lux monitor to each well. Incubate the plate 2 hours at 37° C. and measure green fluorescence using the “Victor” plate reader.
Calculate ID40 for each column. To do this, calculate the relative activity in each well. […] Make a plot for each concentration of OHHL vs. the range of compound concentrations used. Calculate the amount of compound needed to lower the relative activity to 40%, this is termed inhibiting dose 40%, ID40. For each compound an inhibition index, AIC40, is found as follows: plot ID40 against its respective AHL concentration; AIC40 is the slope of the best straight line through the plotted points and origin.
The methodology for this assay is set out in 2(a) above.

[1] = test system: Staphylococcus epidermidis; test: S. epidermidis growth inhibition (OD600 growth curves); format: cell-based; conditions: concentration of compound that significantly alters growth rate or final growth yield
Protocol: The growth inhibition of Staphylococcus epidermidis by the compounds of the present invention was determined by growing S. epidermidis in 96 well microtitre plates in Trypticase Soy Broth plus 0.5% glucose in a Wallac Victor2 microplate reader. Each compound was added to the wells at different concentrations and a no-compound control and a set of blank wells were also used. The OD600 was measured hourly.

S. epidermidis biofilm = test: Inhibition of biofilm formation in petri dishes, S. epidermidis; format: cell-based; conditions: percent reduction of control
Protocol: (§1) Biofilm formation in petri dishes was measured using the following protocol as a compromise between flow cells and microtitire plate based assays. The method increases the number of replicates (relative to flow cells) that can be tested while still generating a biofilm that has typical structures, such as microcolonies, which are important as differentiated structures within the biofilm. The method consists of placing a surface, such as a glass slide (for unattached compounds) or a modified plastic coupon (for covalently attached compounds) on the bottom of a sterile petri dish and adding growth medium. The bacteria are inoculated into the dish and allowed to incubate at the appropriate temperature at 50 rpm. The medium is replaced at 24 h and allowed to incubate a further 24 h, after which time, the slides are removed and rinsed to remove loosely attached cells. For monitoring biofilm formation on glass slides, the cells are either stained with a suitable fluorescent stain and are visualised using the confocal microscope and the biofilm (as % surface coverage) is quantified, or the biofilm is stained with crystal violet, washed thoroughly to remove excess stain, and subsequently destained and the absorbance at […] is measured to determine the amount of biofilm, as a function of crystal violet staining.

P. aeruginosa biofilm = test: Inhibition of biofilm formation in petri dishes, P. aeruginosa; format: cell-based; conditions: 20 ug/ml; percent reduction of control
Protocol: as §1

[2] = Table 4 comparative results, first number of the cell, lower = better
[3] = inhibition index: slope of ID40 against AHL concentration, lower = better inhibitor, NE = no effect

SMILES: C=C1C(c2ccccc2)=CC(=O)N1C
- inhibition at 50 µg/mL (LasR): 40%
- ID40 at 3 nM OHHL (V. fischeri luxRI system): 163.26
- AIC40 (V. fischeri luxRI system; [2]): 52.76
- AIC40 (V. fischeri luxRI system; [3]): 52.76

SMILES: C=C1NC(=O)C=C1Cc1ccccc1
- inhibition at 50 µg/mL (LasR): 61%
- ID40 at 3 nM OHHL (V. fischeri luxRI system): 239.79
- AIC40 (V. fischeri luxRI system; [2]): 69.45
- AIC40 (V. fischeri luxRI system; [3]): 69.45

SMILES: C=C1NC(=O)C=C1c1ccc(C(F)(F)F)cc1
- inhibition at 25 µg/mL (LasR): 54%
- minimal effective concentration [1]: 1 µg/mL
- AIC40 (V. fischeri luxRI system; [3]): 1

SMILES: C=C1NC(=O)C=C1c1cccc(C(F)(F)F)c1
- inhibition at 25 µg/mL (LasR): 40%
- minimal effective concentration [1]: 0.5 µg/mL
- AIC40 (V. fischeri luxRI system; [3]): 4.6

SMILES: C=C1NC(=O)C=C1c1cccc(F)c1
- inhibition at 25 µg/mL (LasR): 70%
- minimal effective concentration [1]: 0.5 µg/mL
- AIC40 (V. fischeri luxRI system; [3]): 1.3

SMILES: C=C1NC(=O)C=C1c1ccccc1F
- inhibition at 25 µg/mL (LasR): 60%
- S. epidermidis biofilm (S. epidermidis biofilm; 0.3 ug/ml): 60% (0.3 ug/ml)
- minimal effective concentration [1]: 20 µg/mL
- AIC40 (V. fischeri luxRI system; [3]): 1.7

SMILES: CC1(O)NC(=O)C=C1c1ccc(F)cc1 (stereo not drawn)
- inhibition at 100 µg/mL (LasR): 28%
- minimal effective concentration [1]: 100 µg/mL

SMILES: CC1(O)NC(=O)C=C1c1ccccc1F (stereo not drawn)
- inhibition at 100 µg/mL (LasR): 40%
- S. epidermidis biofilm (S. epidermidis biofilm; 50 ug/ml): 17% (50 ug/ml)
- P. aeruginosa biofilm (P. aeruginosa biofilm): 12% (20 ug/ml)
- minimal effective concentration [1]: > 100 µg/mL
- AIC40 (V. fischeri luxRI system; [3]): 9.9

SMILES: CC1(O)NC(=O)C=C1c1cccc(F)c1 (stereo not drawn)
- minimal effective concentration [1]: > 100 µg/mL

SMILES: COc1cccc(C2=CC(=O)NC2(C)O)c1 (stereo not drawn)
- minimal effective concentration [1]: > 50 µg/mL

SMILES: COc1ccccc1C1=CC(=O)NC1(C)O (stereo not drawn)
- inhibition at 100 µg/mL (LasR): 41%
- minimal effective concentration [1]: > 50 µg/mL

SMILES: CC1(O)NC(=O)C=C1Cc1ccccc1 (stereo not drawn)
- minimal effective concentration [1]: > 100 µg/mL

— patent publication US9586901B2, “Lactams” (UNILEVER PLC, priority 2006, dated 2017)
